This is an account of results in ChEMBL document CHEMBL4196110, “Covalent Inhibitors of the TEC Family of Kinases and Their Methods of Use” (ACS Med Chem Lett, 2018).

SMILES strings stand for the structures.

The assay deals with Tyrosine-protein kinase BTK (Homo sapiens, UniProt Q06187). Put plainly: Inhibition of BTK (unknown origin) using fluorescently labeled peptide as substrate after 3 hrs by microfluidic mobility shift assay.
Sequence of Tyrosine-protein kinase BTK (Q06187 whole entry): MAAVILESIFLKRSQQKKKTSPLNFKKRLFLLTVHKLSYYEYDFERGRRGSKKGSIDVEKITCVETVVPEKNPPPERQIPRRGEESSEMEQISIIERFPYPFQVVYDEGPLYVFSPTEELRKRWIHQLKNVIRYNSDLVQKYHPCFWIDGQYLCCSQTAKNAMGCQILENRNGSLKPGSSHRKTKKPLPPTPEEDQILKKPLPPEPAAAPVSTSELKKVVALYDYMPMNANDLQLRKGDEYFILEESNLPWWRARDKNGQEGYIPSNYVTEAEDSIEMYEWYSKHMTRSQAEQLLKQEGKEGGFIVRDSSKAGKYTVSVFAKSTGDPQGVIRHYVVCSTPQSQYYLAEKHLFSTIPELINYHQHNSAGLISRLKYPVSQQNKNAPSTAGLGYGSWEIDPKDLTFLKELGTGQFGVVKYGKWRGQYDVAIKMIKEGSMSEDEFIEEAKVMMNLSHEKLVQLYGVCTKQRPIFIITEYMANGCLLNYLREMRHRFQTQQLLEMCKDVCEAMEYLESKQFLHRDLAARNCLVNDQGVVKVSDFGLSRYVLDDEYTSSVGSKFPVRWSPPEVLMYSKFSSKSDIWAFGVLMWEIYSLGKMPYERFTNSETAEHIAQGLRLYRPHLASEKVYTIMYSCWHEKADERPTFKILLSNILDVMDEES
In general, IC50 refers to the point on the concentration scale where inhibition reaches its midpoint. Consider `C=CC(=O)N1CC[C@]2(C1)C[C@H](n1c(NC(=O)c3ccc(C(F)F)s3)nc3cc(CN[C@@H](C)C(C)(C)C)ccc31)C2`, for which the IC50 came to 4.4 nM. To `C=CC(=O)N1CC[C@]2(C1)C[C@H](n1c(NC(=O)c3ccc(-c4ccnc(N)c4)s3)nc3ccccc31)C2` belongs 0.63 nM; to `C=CC(=O)N1CC[C@]2(C1)C[C@H](n1c(NC(=O)c3ccc(-c4cnco4)s3)nc3cc(NC)ccc31)C2`, 0.62 nM.
